One series has as its target CDK4/CycD3 (Homo sapiens, UniProt P11802). Description: Enzymatic inhibitory activity in vitro, CDK4 (Caliper mobility shift, FAM-labeled peptide). Type of series: biochemical. An excerpt: (§1) The materials are used in the following assay:
(§2) HEPES: 4-(2-Hydroxyethyl)piperazine-1-ethanesulfonic acid; Brij-35: Polyethylene Glycol Monoisotridecyl Ether; DTT: Dithiothreitol; EDTA: Ethylene Diamine Tetraacetic Acid; CDK4/CycD3: Cyclin dependent kinase 4; CDK6/CycD3: Cyclin dependent kinase 6; Peptide FAM-P22: fluorescein-labeled peptide 22; ATP: adenosine triphosphate; DMSO: dimethyl sulfoxide; Staurosporine; Coating Reagent #3;
(§3) 1. Preparation of 1× Kinase Base Buffer and Stop Buffer:
(§4) (1) 1× Kinase buffer without MnCl2 (50 mM HEPES, pH 7.5, 0.0015% Brij-35, 10 mM MgCl2, 2 mM DTT); (2) Stop buffer (100 mM HEPES, pH 7.5, 0.015% Brij-35, 0.2% Coating Reagent #3, 50 mM EDTA).
(§5) (1) The compound was diluted to 50× of the final desired highest inhibitor concentration in reaction by 100% DMSO. Transferring 100 μL of this compound dilution to a well in a 96-well plate. (2) The compound was diluted by transferring 20 μL of the compound dilution to 60 μL of 100% DMSO in the next well and so forth for a total of 10 concentrations. (3) 100 μL of 100% DMSO was added to two empty wells for no compound control and no enzyme control. (4) Intermediate plate was prepared by transferring 10 μL of compound from source plate to a new 96-well plate and adding 90 μL of 1× kinase buffer to each well of the intermediate plate. The compounds in intermediate plate were mixed for 10 min on shaker. (5) Assay plate was prepared by transferring 5 μL of each well from the 96-well intermediate plate to a 384-well plate in duplicates.
(§6) (1) 2.5× Enzyme solution was prepared by adding kinase in 1× kinase base buffer. (2) 2.5× Peptide solution was prepared by adding FAM-labeled peptide and ATP in the 1× kinase base buffer. (3) 2.5× Enzyme solution was transferred to the assay plate contained 5 μL of compound in 10% DMSO, which was incubated at room temperature for 10 min. (4) 10 μL of 2.5× […] solution was added to each well of the 384-well assay plate. (5) Kinase reaction and stopping, after incubating at 28° C. for specified period of time, 25 μL of stop buffer was added to stop reaction.
(§7) 4. Caliper Reading, Collect Data on Caliper.
(§8) (1) Copying conversion data from Caliper program; (2) Converting conversion values to inhibition values: Percent inhibition=(max−conversion)/(max−min)*100; “max” means the value of control without compound; “min” means the value of control without enzyme; (3) Fitting the data in XLfit to obtain IC50 values.

Another series addresses CDK6/CycD3 (Homo sapiens, UniProt Q00534). Description: Enzymatic inhibitory activity in vitro, CDK6 (Caliper mobility shift, FAM-labeled peptide). Type of series: biochemical.
Description: as §1, §2, §3, §4, §5, §6, §7, §8

The nature of series [1]: Pharmacokinetics in rats (iv and oral, plasma LC-MS/MS). The format is in vivo, male SD rats. To be noted: rat. An excerpt:
The assay agents and samples are as shown below:
Propranolol: Propranolol (internal standard); MTBE: Methyl Tertiary Butyl Ether; Cremophor EL: polyoxyethylated castor oil; KolliphorHS 15: polyethylene glycol 12-hydroxystearate; DMSO: dimethylsulfoxide; PEG400: polyethylene glycol 400; 18 male SD rats.
Each test compound prepared was completely dissolved in a mixture of 5% DMSO+10% KolliphorHS 15+35% Saline or 5% DMSO+60% PEG400+35% Saline according solubility property thereof.
Grouping male SD rats weighing 190-250 g randomly to two groups; one group was administered with test compound at a dose of 1.0 mg/kg by intravenous injection, the other group was administered with test compound at a dose of 5.0 mg/kg by oral. After administering, blood samples of intravenous injection group were collected at time points of 0.0833, 0.25, 0.5, 1, 2, 5, 7 and 24 h from caudal vein; blood samples of oral group were collected at time points of 0.25, 0.5, 1, 2, 5, 7 and 24 h from caudal vein. Standard curve was plotted based on concentrations of the samples in a suitable range, the concentrations of test compounds in plasma samples were determined by using LC-MS/MS. Pharmacokinetic parameters were calculated according to drug concentration-time curve using a noncompartmental method by WinNonLin 6.3 software.

Like-named read-outs stand apart in the source and are kept apart here.

Sequence of CDK6/CycD3 (Q00534 whole entry, species assumed): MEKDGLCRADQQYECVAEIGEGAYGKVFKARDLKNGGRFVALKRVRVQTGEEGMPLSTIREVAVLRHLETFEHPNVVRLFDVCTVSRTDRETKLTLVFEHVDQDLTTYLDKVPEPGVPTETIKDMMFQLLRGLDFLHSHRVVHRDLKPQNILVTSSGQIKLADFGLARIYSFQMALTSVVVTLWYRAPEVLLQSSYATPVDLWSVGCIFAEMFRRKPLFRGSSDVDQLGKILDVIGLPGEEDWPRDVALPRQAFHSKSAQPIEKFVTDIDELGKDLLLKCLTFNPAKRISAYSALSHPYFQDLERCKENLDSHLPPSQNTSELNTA
Sequence of CDK6/CycD3 (P30281 whole entry partner, species assumed): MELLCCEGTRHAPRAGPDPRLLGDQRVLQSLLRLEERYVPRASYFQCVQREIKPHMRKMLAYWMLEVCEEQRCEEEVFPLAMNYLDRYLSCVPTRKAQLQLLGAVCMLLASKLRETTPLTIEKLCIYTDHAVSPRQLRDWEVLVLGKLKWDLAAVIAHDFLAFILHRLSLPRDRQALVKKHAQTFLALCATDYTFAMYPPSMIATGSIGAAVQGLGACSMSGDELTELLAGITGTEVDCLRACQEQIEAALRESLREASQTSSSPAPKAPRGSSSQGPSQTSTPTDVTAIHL
Sequence of CDK4/CycD3 (P11802 whole entry, species assumed): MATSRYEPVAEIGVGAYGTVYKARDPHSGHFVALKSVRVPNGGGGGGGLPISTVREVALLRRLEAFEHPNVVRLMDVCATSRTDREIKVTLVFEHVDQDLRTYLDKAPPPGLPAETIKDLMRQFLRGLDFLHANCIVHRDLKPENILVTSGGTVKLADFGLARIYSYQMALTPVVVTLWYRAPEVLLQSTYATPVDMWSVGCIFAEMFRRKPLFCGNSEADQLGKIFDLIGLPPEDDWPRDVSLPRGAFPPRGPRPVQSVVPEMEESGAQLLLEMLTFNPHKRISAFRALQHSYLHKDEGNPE
Sequence of CDK4/CycD3 (P30281 whole entry partner, species assumed): as the sequence (P30281 whole entry partner, species assumed) above

Turning to `CC(=O)c1c(C)c2cnc(Nc3ccc4c(ccn4C4CCNCC4)c3)nc2n(C2CCCC2)c1=O` [Example 1, 6-Acetyl-8-cyclopentyl-5-methyl-2-((1-(piperidin-4-yl)-1H-indol-5-yl)amino)pyrido[2,3-d]pyrimidin-7(8H)-one], the IC50 on CDK4/CycD3 was determined as 6.8 nM; on CDK6/CycD3, 29.2 nM.
The like results for `CC(=O)c1c(C)c2cnc(Nc3ncnc4c(C5=CCNCC5)csc34)nc2n(C2CCCC2)c1=O` [Example 2, 6-Acetyl-8-cyclopentyl-5-methyl-2-((7-(1,2,3,6-tetrahydropyridin-4-yl)thieno[3,2-d]pyrimidin-4-yl)amino)pyrido[2,3-d]pyrimidin-7(8H)-one] were, in that order, 2390 nM and 4810 nM.
As for `CC(=O)c1c(C)c2cnc(Nc3ccc4c(n3)CCNC4)nc2n(C2CCCC2)c1=O` [Example 3, 6-Acetyl-8-cyclopentyl-5-methyl-2-((5,6,7,8-tetrahydro-1,6-naphthyridin-2-yl)amino)pyrido[2,3-d]pyrimidin-7(8H)-one], the bioavailability in series [1] (male, SD, in vivo) is 101%. Moreover, in series [1] (male, SD, in vivo, iv, 1 mg/kg), the AUC(0-inf) is 587 ng·h/mL, the AUC(0-t) worked out at 485 ng·h/mL, the Cmax was found to be 141 ng/mL and the Tmax came to 0.42 h. This compound showed a half-life in series [1] (male, SD, in vivo, iv, 1 mg/kg) of 2.93 h. Besides, in series [1] (male, SD, in vivo, po, 5 mg/kg), the AUC(0-inf) worked out at 2970 ng·h/mL, the AUC(0-t) was 2930 ng·h/mL, the peak level (Cmax) was 293 ng/mL and the Tmax is 4 h. In series [1] (male, SD, in vivo, po, 5 mg/kg), this compound showed a half-life of 3.91 h. Besides, the IC50 at CDK4/CycD3 turned out to be 5.7 nM. Further, on CDK6/CycD3, the IC50 worked out at 47 nM.
In the case of `CC(=O)c1c(C)c2cnc(Nc3ccc4c(n3)CCN(C(=O)CO)C4)nc2n(C2CCCC2)c1=O` [Example 4, 6-Acetyl-8-cyclopentyl-2-((6-(2-hydroxyacetyl)-5,6,7,8-tetrahydro-1,6-naphthyridin-2-yl)amino)-5-methylpyrido[2,3-d]pyrimidin-7(8H)-one], the IC50 at CDK4/CycD3 is 17 nM; on CDK6/CycD3 it was 62 nM.
The like results for `CC(=O)c1c(C)c2cnc(Nc3ccc4c(n3)CCN(CCC(F)(F)F)C4)nc2n(C2CCCC2)c1=O` [Example 5, 6-Acetyl-8-cyclopentyl-5-methyl-2-((6-(3,3,3-trifluoropropyl)-5,6,7,8-tetrahydro-1,6-naphthyridin-2-yl)amino)pyrido[2,3-d]pyrimidin-7(8H)-one] were, in that order, 25 nM and 1060 nM.
As for `CC(=O)c1c(C)c2cnc(Nc3ccc4c(n3)CCN(C(C)=O)C4)nc2n(C2CCCC2)c1=O` [Example 6, 6-Acetyl-2-((6-acetyl-5,6,7,8-tetrahydro-1,6-naphthyridin-2-yl)amino)-8-cyclopentyl-5-methylpyrido[2,3-d]pyrimidin-7(8H)-one], the IC50 at CDK4/CycD3 amounted to 20 nM; at CDK6/CycD3 it was 65 nM.
The matching figures for `CCN1CCc2nc(Nc3ncc4c(C)c(C(C)=O)c(=O)n(C5CCCC5)c4n3)ccc2C1` [Example 7, 6-Acetyl-2-((6-ethyl-5,6,7,8-tetrahydro-1,6-naphthyridin-2-yl)amino)-8-cyclopentyl-5-methylpyrido[2,3-d]pyrimidin-7(8H)-one]: 19 nM and 83 nM.
The like results for `CC(=O)c1c(C)c2cnc(Nc3ccc4c(n3)CCN(C3CCNCC3)C4)nc2n(C2CCCC2)c1=O` [Example 39] were, in that order, 14 nM and 51 nM.
The like results for `CC(=O)c1c(C)c2cnc(Nc3ccc4c(n3)CCN(C3CCN(C)CC3)C4)nc2n(C2CCCC2)c1=O` [Example 40, 6-Acetyl-8-cyclopentyl-5-methyl-2-((6-(1-methylpiperidin-4-yl)-5,6,7,8-tetrahydro-1,6-naphthyridin-2-yl)amino)pyrido[2,3-d]pyrimidin-7(8H)-one] were, in that order, 7.2 nM and 25 nM.
For `CC(=O)c1c(C)c2cnc(Nc3ccc4c(n3)CCN(C3COC3)C4)nc2n(C2CCCC2)c1=O` [Example 41, 6-Acetyl-8-cyclopentyl-5-methyl-2-((6-(oxetan-3-yl)-5,6,7,8-tetrahydro-1,6-naphthyridin-2-yl)amino)pyrido[2,3-d]pyrimidin-7(8H)-one], the IC50 was 18 nM at CDK4/CycD3 and 59 nM on CDK6/CycD3.
In the case of `CC(=O)c1c(C)c2cnc(Nc3ccc(N4CCNCC4)cn3)nc2n(C2CCCC2)c1=O` [Palbociclib, reference compound], the AUC(0-inf) in series [1] (plasma, male SD rats, iv, 1.0 mg/kg, read-out: AUCINF) worked out at 332 ng·h/mL; in series [1] (plasma, male SD rats, po, 5.0 mg/kg, read-out: AUCINF), 1400 ng·h/mL. Besides, the AUC(0-t) in series [1] (plasma, male SD rats, iv, 1.0 mg/kg, read-out: AUClast) was 294 ng·h/mL; in series [1] (plasma, male SD rats, po, 5.0 mg/kg, read-out: AUClast) it was 1280 ng·h/mL. In addition, the highest concentration (Cmax) in series [1] (plasma, male SD rats, iv, 1.0 mg/kg, read-out: Cmax) stood at 143 ng/mL; in series [1] (plasma, male SD rats, po, 5.0 mg/kg, read-out: Cmax), 156 ng/mL. The half-life in series [1] (plasma, male SD rats, iv, 1.0 mg/kg, read-out: T1/2 (converted)) was 2.72 h; in series [1] (plasma, male SD rats, po, 5.0 mg/kg, read-out: T1/2 (converted)), 4.28 h. Further, the Tmax in series [1] (plasma, male SD rats, iv, 1.0 mg/kg, read-out: Tmax) amounted to 0.083 h; in series [1] (plasma, male SD rats, po, 5.0 mg/kg, read-out: Tmax) it was 2.67 h. Also, the bioavailability in series [1] (plasma, male SD rats, po 5.0 mg/kg versus iv 1.0 mg/kg, read-out: F (%)) is 79.9%.

As usually defined, the IC50 is the concentration at which inhibition is half-maximal. One may read the Cmax as the peak of the concentration-time curve. By Tmax is commonly meant the time at which the peak concentration occurs.

The record behind these values is patent publication US9828373B2, “2-amino-pyrido[2,3-D]pyrimidin-7(8H)-one derivatives as CDK inhibitors and uses thereof” (SUNSHINE LAKE PHARMA CO., LTD., priority 2014, dated 2017).
